Patent US11692194B2, “Modulating expression of polypeptides via new gene switch expression systems” (Precigen, Inc., priority 2017, dated 2023)
“Also recorded” adds a separate entry of the source.

Tests used:
[1] = system: RTS-mbIL-15 in CD19 CAR T cells; assay: Western blot of mbIL-15 expression; format: cell-based, human; conditions: CD19 CAR+RTS-mbIL-15 cells, veledimex 2-3 days after four rounds of stimulation
Procedure: PBMC were nucleofected with plasmids of Sleeping Beauty system to express CD19-specific CAR under constitutive promoter (CD19 CAR alone), or CD19-specific CAR and mbIL-15 both under constitutive promoters (CD19 CAR+constitutive-mbIL-15) or CD19-specific CAR under constitutive promoter and RTS-mbIL-15 (CD19 CAR+RTS-mbIL-15). Nucleofected cells were cultured in presence of AaPC as described in Example 1.
After four rounds of stimulations, cells were cultured in absence (CD19 CAR alone, CD19 CAR+constitutive-mbIL-15 and CD19 CAR+RTS-mbIL-15) or presence (CD19 CAR+RTS-mbIL-15) of veledimex for 2-3 days. Cell lysates were prepared for western blot analysis. Approximately 10 μg lysate/lane of NuPAGE 10% Bis-Tris gel was loaded. Proteins were transferred from gel to a polyvinylidene fluoride (PVDF) membranes using the iBlot® (Life Technologies) semi-dry transfer apparatus. Membrane was blocked using a 5% (w/v) powdered milk solution in a PBS+Tween-20 (PBST; 1×PBS+0.05% Tween-20) solution stained with goat anti-human IL-15 (R&D Systems) primary antibody and rabbit anti-goat IgG HRP (KPL Laboratories) secondary antibody. […]
Image of the western blot were captured on the FluorChem™ E Imager (ProteinSimple, San Jose, Calif.) system using the Digital Darkroom software and AlphaView® software (ProteinSimple). […] In CD19 CAR+constitutive-mbIL-15 positive control, expression of mbIL-15 was detected.

[2] = system: gene switch components VP16/RxR and Gal4/EcR controlling mbIL-15 in CD19 CAR-T cells; assay: T cell activation and ligand specific control of mbIL-15 (NFAT6-IL2 promoter driven gene switch), flow cytometry; format: cell-based, human
Procedure: Sleeping Beauty transposons were designed to stably express CD19-specific CAR, a cell tag as well as gene switch-controlled mbIL-15. Expression of one or both of gene switch components (e.g. VP16/RxR and Gal4/EcR) were performed under the control of a T cell activation specific promoter. In this example, a T cell activation dependent promoter generated by 6×NFAT response element fused to minimal IL-2 promoter (NFAT6-IL2 promoter) was utilized to drive expression of gene switch components—VP16-RxR and/or Gal4-EcR fusion proteins for conditional expression of mbIL-15. When components of the gene switch are under the control of NFAT6-IL2 promoter, expression of mbIL-15 requires two conditions to be met: 1) T cells are activated; and 2) activator ligand, veledimex, to be present. SB transposons construct combinations shown in FIG. 20A were transfected along with SB11 transposase in donor T cells. […]
The following day (day 1) cells were counted, and CAR expression was measured by flow cytometry. […]
For flow cytometry analysis to assess expression of various markers and gene(s) of interest cells were gently resuspended and cell number and viability were measured using Trypan blue exclusion method with the Countess instrument. Cell diameter size was also recorded. […] The prepared antibody cocktails and associated fluorescence minus one/isotype control were added to stain the cell samples, and then the samples were incubated on ice for 30 min. […] All samples were run on a LSR II flow cytometer, a Fortessa X-20 flow cytometer (BD Biosciences) or iQue Screener Plus (Intellicyt) and data was analyzed using FlowJo V10 (TreeStar, Ashland, Oreg.) or iQue Screener software. […]
Non-activated or activated CAR-T cells were harvested and either 100 nM veledimex or DMSO (to keep DMSO concentration constant in both cultures) was added to the cultures. […] CAR and mbIL-15 expression was quantified in either resting (FIG. 20B) or activated T cells in presence of absence of veledimex (FIG. 20C: ConA 1 μg/mL; ConA 5 μg/mL: FIG. 20D, PMA/Ionomycin: FIG. 20E).

CCC[C@@H](N(NC(=O)c1cccc(OC)c1CC)C(=O)c1cc(C)cc(C)c1)C(C)(C)C [veledimex, N-[(1R)-1-(1,1-dimethylethyl)butyl]-N′-(2-ethyl-3-methoxybenzoyl)-3,5-dimethylbenzohydrazide]
mbIL-15 expression by western blot [1]: strong expression of mbIL-15 | mbIL-15 expression in activated CAR-T cells with gene switch components under NFAT6-IL-2 promoter ([2]; constructs #3, 4 and 6, ConA 1 or 5 μg/mL or PMA/Ionomycin, 100 nM veledimex): exhibited expression of mbIL-15; also recorded: dependent on T cell activation (with addition of ConA) and presence of veledimex | mbIL-15 expression in absence of T cell activation ([2]; resting CAR-T cells, 100 nM veledimex, at least 24 hours): only CAR-T cells that harbor transposons for expression of gene switch components (e.g. VP16/RxR and Gal4/EcR) under a constitutive promoter were able to express mbIL-15 | levels of mbIL-15 expression versus level of T cell activation ([2]; veledimex at fixed concentration, ConA 1 vs 5 μg/mL): increased with level of T cells activation
